According to article PMC7409197, “Adenosine Receptors as Neuroinflammation Modulators: Role of A1 Agonists and A2A Antagonists” (Cells, 2020):

Experiments:
[1] = tested on: mixed glial cells; test: Hoechst assay, cell area and circularity in mixed glial cells; assay type: cell-based, rat; settings: compound 1 pre-treatment, compound 2 post-treatment, with CK cocktail
Procedure: This assay was carried out using Hoechst 33258. 6 × 10^5 mixed glial cells were seeded in a six well plate. After 24 h the media was eliminated, and cell cultures washed with PBS. Then, they were washed with acetic acid/methanol solution 50:50, again washed with PBS and incubated 10 min with a fixative solution. After this, cells were cleaned with distilled water and incubated light protected for 30 min at rt with Hoechst (1 µg/mL). Finally, the dye was discarded, and cells washed with water. Glycerol solution was added and cells were observed under an Olympus microscope. The cell area and circularity were measured using ImageJ as image analyzing software. Area and circularity were calculated as percentage using the following formula:(1) Area or circularity =area or circularity of treated cells/area or curcularity of control cells × 100

[2] = tested on: Sprague Dawley rats; test: Y Maze short-term memory in LPS neuroinflammation rat model; assay type: in vivo; settings: for short-term memory impairment by LPS (novel arm preference, Y Maze) / short-term memory performance, compound alone (Y Maze): rats; for short-term memory performance, compound alone (Y Maze): saline instead of LPS
Procedure: Animal procedures were performed in accordance with the European Community guidelines (Directive 2010/63/EU), Portuguese law on animal care (DL 113/2013), and approved by the Instituto de Medicina Molecular Internal Committee and the Portuguese Animal Ethics Committee (Direcção Geral de Veterinária). Environmental conditions were kept constant: food and water ad libitum, 21 ± 0.5 °C, 60% ± 10% relative humidity, 12 h light/dark cycles, 3–5 rats per double-decker ventilated cage. Male Sprague Dawley rats 8 weeks old were divided into the following groups (Table 1):
C1 was dissolved in 5% DMSO + 95% H2O to a final concentration of 7 mg/mL and C2 was dissolved in DMSO to a final concentration of 5 mg/mL. Accordingly, vehicle for G1 was 5% DMSO + 95% H2O and for G2 was DMSO.
Animals were anesthetized with a cocktail of 75 mg/kg ketamine + 1 mg/kg dexmedetomidine. Once rats were deeply anesthetized, the head was fixed into a stereotaxic frame and an incision made on the scalp to expose the skull. Coordinates for injection were AP -1.0, ML ± 1.5, DV -3.7 mm. For G1, LPS was delivered bilaterally 5 µL of a 1 µg/µL LPS solution per hemisphere, and C1 was delivered also i.c.v. 15 min before the LPS injection, 5 µL of a 7 µg/µL solution. Flow rate was kept at 1 µL/min, using an automatic injector coupled to a 10 µL hamilton syringe gauge 30. After each injection, 5 min were allowed for diffusion of the drugs before slowly removing the needle. After the procedure, rats were sutured, administered atipamezole (1 mg/kg) to reverse anesthesia, and brought back to a heated cage until fully recovered. For G2, rats were injected i.p. with a 2.5 mg/kg solution of C2, 30 min after the i.c.v. injection of LPS 5 µg/5 µL per hemisphere, in total of 10 µg. Rats were monitored for sickness behavior (body temperature, general activity) and given access to gel food in the first 48 h.
Y Maze is a behavior test useful to measure short-term spatial working memory. Animals are introduced in the maze always in the same starting position, at the end of the start arm. An initial habituation phase of 8 min, animals freely explore 2 of the arms, the 3rd being closed. Sixty minutes after the habituation period animals are placed again in the maze for 5 min this time with all 3 arms available to exploration. Using the Smart video tracing software, each animal’s route was registered. The time spent in the arm initially closed, which for the animal is the novel, unexplored environment, is calculated in relation to the time spent in the already familiar arms.

[3] = tested on: mixed glial cells; test: MTS cell viability in cytokine cocktail (CK) inflammatory model, mixed glial cells; assay type: cell-based, rat
Procedure: (§1) Newborn male Wistar rats were sacrificed and mixed glial cell cultures were obtained from the cerebral cortices. Cerebral cortices were dissected, and meninges were cleared away. Tissues were treated with trypsin solution (trypsin 0.05% (w/v) trypsin-EDTA 5 mM) for 25 min at 37 °C. The tissue was fully disaggregated by pipetting and the dissociated cells were seeded in a 6-well plate with Dulbecco’s modified Eagle’s/High glucose medium enriched with 100 U/mL penicillin, 100 µg/mL streptomycin and 10% FBS. Fresh medium was changed the next day and then every 3 days decreasing the quantity of FBS. All experiments were carried out after 7–9 days of plating.
(§2) Mixed glial cell cultures were divided into 2 groups, one to study A1AR partial agonists and another for A2AAR antagonists. Cells from the first group were pre-treated with 2 µL at three different concentrations of C1 for 15, 30 or 60 min and then with further addition of a pro-inflammatory cocktail of cytokines (TNF-α, 20 ng/mL; IL-1β, 20 ng/mL; IFN-γ 20 ng/mL) for 48 h. […] To study C2 cells were pre-treated with the same CK cocktail for 48 h and then with 2 µL of C2 at three different concentrations for 15, 30, or 60 min (Scheme 1). ZM241385, a well known A2AAR antagonist, was used as reference compound. Furthermore, ligands and CK were tested alone for 15, 30 or 60 min and 48 h respectively.
(§3) 1.7 × 10^4 mixed glial cells were cultured in 98 μL of the specific medium in a 96 well plate overnight. The next day 2 μL of ligand or CK cocktail were added to the well. After all treatments, 20 µL of CellTiter 96® AQueous One Solution Reagent was added in a final volume of 100 µL. Absorbance was read at 490 nm using the plate reader GENiosPro. Cell viability was calculated as percentage using the following formula: Cell viability =OD mean of treated cells/OD mean of control cells × 100

[4] = tested on: mixed glial cells; test: Griess assay (nitrite production) in mixed glial cells; assay type: cell-based, rat; settings: 30 min
Procedure: To test the antioxidant capacity of these new molecules Griess assay was performed. The Griess Reagent System is based in the conversion of sulphanilamide into an azo-compound with the presence of N-1-napthylenediamide dihydrochloride (NED) under acidic condition. 1.7 × 10^4 mixed glial cells were cultured in 98 μL of the specific medium in a 96 well plate overnight. After 24 h the media from each well of the cell culture was transferred into a 96 well plate and then 50 µL of the sulphanilamide solution was added to each well. After 5–10 min of incubation at room temperature (rt), 50 µL of the NED Solution were dispensed to all wells and they were incubated at rt for other 5–10 min. Absorbance was measured within 30 min in the plate reader GENiosPro with a filter between 520 nm and 550 nm. This experiment was performed 3–5 replicates. Concentration of NO¬¬¬¬2¯ in each sample was determined by comparison to a Nitrite standard reference curve.

[5] = tested on: mixed glial cells; test: CellTiter 96 AQueous One (MTS) cell viability, ligands alone, mixed glial cells; assay type: cell-based, rat; settings: for toxicity in vitro (cell viability): compared with CCPA and ZM241385; for cell viability vs. control: ligand alone
Procedure: as §1, §2, §3

Row | blood brain barrier (BBB) crossing ([2]; inferred from rescue of CNS insult after i.p. injection in rats) | SMILES | cell area and circularity (Hoechst), effect against CK aggression [1] | short-term memory impairment by LPS (novel arm preference, Y Maze) ([2]; i.c.v. 5 µL of 7 µg/µL 15 min before i.c.v. LPS) | short-term memory performance, compound alone (Y Maze) ([2]; i.c.v.) | cell viability vs. control ([3]; pre-treatment 5.5 µM for 30 min, then CK cocktail 48 h) [%] | prevention of CK aggression (cell viability, words) ([3]; pre-treatment before CK cocktail 48 h, C1 2-30 µM, CCPA 10 nM 30 min) | antioxidant activity (Griess) ([4]; 5.5 µM, alone and in combination with CK) | toxicity in vitro (cell viability) [5] | cell viability vs. control ([5]; 5.5 µM, 30 min) [%] | cell viability vs. control ([5]; 30 µM, 15 min) [%] | short-term memory impairment by LPS (novel arm preference, Y Maze) ([2]; 2.5 mg/kg i.p. 30 min after i.c.v. LPS) | short-term memory performance, compound alone (Y Maze) ([2]; 2.5 mg/kg i.p.) | cell viability vs. control ([3]; CK cocktail 20 ng/mL 48 h, then ligand 5 nM for 15 min) [%] | cell viability vs. control ([3]; CK cocktail 20 ng/mL 48 h, then ligand 10 nM for 30 min) [%] | nitrite levels in presence of CK cocktail ([4]; 10 nM, after CK cocktail) | levels of nitrite produced ([4]; 10 nM, alone) | cell viability vs. control ([5]; 10 nM, 15 min) [%] | cell viability vs. control ([5]; 10 nM, 30 min) [%] | cell viability vs. control ([5]; 10 nM, 60 min) [%] | cell viability vs. control ([5]; 60 nM, tendency to toxicity) [%]
1 |  | OC[C@H]1O[C@@H](n2cnc3c(NC4CCCC4)nc(Cl)nc32)C[C@@H]1O [Compound C1, 2-chloro-N^6-cyclopentyl-2′-deoxyadenosine] | protective effect | rescued | reduction in the short-term memory performance | 113 ± 3.1 | able to prevent the CK aggression | did not show any antioxidant activity | no toxic effect | 116 ± 1.7 | 117 ± 1.3 |  |  |  |  |  |  |  |  |  | 
2 | readily crosses the BBB | CCn1c(Cl)nc2c(N)nc(OCCc3ccccc3)nc21 [Compound C2, 8-chloro-9-ethyl-2-phenethoxyadenine] | protective effect |  |  |  |  |  | no toxic effect |  |  | rescued | devoid of any effects in memory performance | 138 ± 1.7 | 233 ± 3.4 | able to decrease the high nitrite levels | lower than those obtained in control | 110 ± 2.7 | 127 ± 3.1 | 125 ± 4.3 | ~80
